Measurements reported in paper PMC9863607, “Combined Use of Antimicrobial Peptides with Antiseptics against Multidrug-Resistant Bacteria: Pros and Cons” (Pharmaceutics, 2023).
Read-outs that look alike come from different tables or passages of the source. Peptide text beside a SMILES is read from it.

What was measured:
[1] = test system: A. baumannii 7226/16; assay: microbe, parasite or virus in culture; assay type: cell-based, Acinetobacter baumannii
Method: (§1) In this regard the test plates were preincubated for 1 h at 37 °C with 0.1% bovine serum albumin (BSA) in distilled water before use. Bacteria were grown overnight at 37 °C with shaking in 2.1% Müller–Hinton broth (MHB), and then a small aliquot was transferred into the fresh portion of the same medium for another 2–3 h on the day of the experiment to provide us with the log phase bacterial suspension. Concentration of bacterial cells in suspension was evaluated based on absorbance at 620 nm and diluted down to 1 × 10^6 CFU/mL with MHB. Equal volumes of the prepared bacterial suspension in MHB and two-fold serial dilutions of the antimicrobials in 10 mM sodium phosphate (Na-P) buffer (pH 7.4) with 0.1% BSA were mixed and incubated overnight at 37 °C. The lowest concentration where no bacterial growth was observed the next day under visual examination was considered the minimal inhibitory concentration. The test was repeated at least three times, and the final MIC value was established as a median result. Each experiment was conducted in triplicates. Terasaki microplates (10 µL end volume, V-shaped bottom; Sarstedt, Nümbrecht, Germany) were used.

[2] = test system: P. aeruginosa MDR 522/17; assay: microbe, parasite or virus in culture; assay type: cell-based, Pseudomonas aeruginosa
Method: as §1

[3] = test system: K. pneumoniae ESBL 344/17; assay: microbe, parasite or virus in culture; assay type: cell-based, Klebsiella pneumoniae
Method: as §1

[4] = test system: A. baumannii 7226/16; assay: Crystal violet assay of biofilm formation; assay type: cell-based, Acinetobacter baumannii; conditions: median of 3 independent experiments; for Minimal FECI, AMP + CAPB, biofilm formation: combination with cocamidopropyl betaine; for Minimal FECI, AMP + DXD, biofilm formation: combination with dioxydin; for Minimal FECI, AMP + ETA, biofilm formation: combination with etidronic acid; for Minimal FECI, AMP + PTS, biofilm formation: combination with prontosan; for MECBF partially inhibiting bacterial biofilms: minimal concentration with significant decrease vs intact control (Mann–Whitney, p < 0.05), 24 h, 37 °C, MHB
Method: The impact of the tested antimicrobials and their combinations on the formation of biofilms was quantitated as per the crystal violet assay protocol published by Merritt et al.. Testing was performed in 96-well immunological plates with U-shaped bottoms. Overnight cultures of tested bacteria in MHB were diluted by a factor of 50, mixed 1:1 with 50 μL of active compounds or combinations in the same growth medium adjusted to double the desired final concentration, and left to form biofilms for 24 h at 37 °C. Experimental samples were quadruplicated, and control without antimicrobials was octuplicated.
Then, the liquid content of the test plates was discarded, and the plates were gently washed in still water from residual traces of unattached planktonic bacteria. Each well was supplied with 125 μL 0.1% aqueous solution of crystal violet dye for 10 min at room temperature to stain biofilm components left attached to the surface. After staining, the plates were washed with clear water once more to remove excessive dye and left to air-dry. To quantify the amount of the bound dye corresponding to the thickness of the formed biofilm, it was redissolved in 30% acetic acid, 200 μL of which was introduced into each well. After 15 min at room temperature, the content of the wells was mixed by repetitive pipetting to ensure complete dye extraction, and 125 μL of each sample was transferred well-by-well into 96-well clear flat-bottom plates for spectrophotometric examination. OD was measured at 580 nm. Final results were calculated as medians based on three independent experiments.
The minimal concentrations of AMPs and antiseptics causing a statistically significant inhibitory effect on biofilm formation (i.e., a statistically significant decrease compared with the control biofilm formed by the intact bacteria; Mann–Whitney U-test, p < 0.05) are shown in Table 3 and are later referenced as MECBF (for minimal effective concentration regarding biofilm formation). The exact value of such a minimal effect is admittedly small, within the range of a 10–20% decrease in the density of the emerging biofilm. Thus, the practical usefulness of such an effect, even if strengthened in combinations, is quite questionable; however, from the academic point of view, even slight changes can provide us with information on the mode of interaction between AMPs and antiseptics and allow us to make certain assumptions about the nature of such interactions.
Analyzing the combined action of AMPs and antiseptics (AS) in sub-microbicidal concentrations toward biofilms, we adopted the same approach based on the calculation of fractional indices as the one we used while testing antimicrobial activity on planktonic bacteria. For combinations, the series of concentrations from [MECBF(AMP) + MECBF(AS)], [½MECBF(AMP) + ½MECBF(AS)] and down to [1/32 × MECBF(AMP) + 1/32 × MECBF(AS)] was analyzed. […] The fractional indices, denoted here as fractional effective concentration indices (FECIs), were calculated as follows: FECI = [AMP]/MECBF(AMP) + [AS]/MECBF(AS), where [AMP] and [AS] are the concentration of AMP and antiseptic in a combination that has a statistically significant inhibitory effect on the formation of biofilms if compared with the intact control (Mann–Whitney U-test, p < 0.05). The minimal FECI > 4 was interpreted as antagonism, FECI ≤ 0.5 as synergy, 0.5 < FECI ≤ 1 as additivity, and 1 < FECI ≤ 4 as independent action.

[5] = test system: human erythrocytes; assay type: cell-based
Method: Hemolytic properties of the test substances and their combinations were assessed as previously described. Whole human blood was collected from healthy donors by venipuncture into sterile EDTA-covered vacuum tubes, diluted 10 times with ice-cold phosphate-buffered saline (PBS) containing 4mM EDTA for the start, and then washed out twice with still ice-cold but anticoagulant-free PBS by a 10 min long centrifugation at 300× g and 4 °C to remove plasma and anticoagulant altogether. […] Samples were incubated for 30 min at 37 °C and then supplied with 90 µL of ice-cold PBS to stop further hemolysis. Remaining RBCs or their debris were precipitated by 4 min of centrifugation at 10,000× g and room temperature, and 100 µL of the supernatants was transferred to a 96-well clear flat-bottom test plate to spectrophotometrically detect hemoglobin released from the damaged RBCs. OD was measured at 540 nm—one of the hemoglobin absorbance maxima. The samples with 6 µL of pure PBS (with no potentially hemolytic agents) were used as a 0% lysis reference point. Experimental samples were compared with 0% lysis control by the Mann–Whitney U-test (p < 0.05) to identify statistically significant hemolytic action. In case the exact level of effect was of interest, the samples with 6 µL of 5% v/v Triton X-100 in PBS were also prepared to additionally obtain a 100% lysis reference point and calculate the percentage of hemolysis in test samples as hemolysis (%) = (ODsample − OD0% lysis)/(OD100% lysis − OD0% lysis) × 100%. At least three independent repeats were performed.
The absence “–” or presence “+” of a statistically significant difference compared with the intact control once exposed to the action of combinations of AMPs and antiseptics in concentrations equal to ½ or ¼ of their individual MECH was evaluated in a series of three independent experiments.

[6] = sub-microbicidal concentrations
[7] = antiseptics and surfactants, MHB, overnight 37 °C, median of 3–4 independent experiments, prontosan as polyhexanide
[8] = antiseptics and surfactants, 2.5% v/v RBC in PBS, 30 min, 37 °C, median of 3 independent experiments, prontosan as polyhexanide

Row | Compound | MIC ([1]; 7226/16, 1 h) | MIC ([2]; MDR 522/17, 1 h) | MIC ([3]; ESBL 344/17, 1 h) | Minimal FECI, AMP + CAPB, biofilm formation [4, 6] | Minimal FECI, AMP + DXD, biofilm formation [4, 6] | Minimal FECI, AMP + ETA, biofilm formation [4, 6] | Minimal FECI, AMP + PVG, biofilm formation ([4]; combination with poviargolum, sub-microbicidal concentrations) | Minimal FECI, AMP + PTS, biofilm formation [4, 6] | MECBF partially inhibiting bacterial biofilms [4] | MIC [1, 7] | MIC [2, 7] | MIC [3, 7] | MECH [5] | MECH of hemolysis of human erythrocytes [5, 8] | MIC ([1]; Acinetobacter baumannii, 7226/16, antiseptics and surfactants, MHB, overnight 37 °C, median of 3–4 independent experiments, prontosan as polyhexanide, read-out: MIC) | MIC ([2]; Pseudomonas aeruginosa, MDR522/17, antiseptics and surfactants, MHB, overnight 37 °C, median of 3–4 independent experiments, prontosan as polyhexanide, read-out: MIC) | MIC ([3]; Klebsiella pneumoniae, ESBL344/17, antiseptics and surfactants, MHB, overnight 37 °C, median of 3–4 independent experiments, prontosan as polyhexanide, read-out: MIC) | MECH of hemolysis of human erythrocytes [5]
1 | CC[C@H](C)[C@H](NC(=O)[C@H](CCCNC(=N)N)NC(=O)[C@@H](NC(=O)[C@@H]1CCCN1C(=O)[C@@H]1CCCN1C(=O)[C@H](CCCNC(=N)N)NC(=O)[C@H](CCCNC(=N)N)NC(=O)[C@H](Cc1ccccc1)NC(=O)[C@@H]1CCCN1C(=O)[C@H](CC(C)C)NC(=O)[C@H](CCCNC(=N)N)NC(=O)[C@H](Cc1ccccc1)NC(=O)[C@@H](N)CCCNC(=N)N)[C@@H](C)CC)C(=O)N[C@@H](Cc1c[nH]cn1)C(=O)N1CCC[C@H]1C(=O)N1CCC[C@H]1C(=O)N1CCC[C@H]1C(=O)N[C@@H](Cc1ccccc1)C(=O)N[C@@H](Cc1ccc(O)cc1)C(=O)N1CCC[C@H]1C(=O)N1CCC[C@H]1C(=O)N[C@@H](Cc1ccccc1)C(=O)N[C@@H](CCCNC(=N)N)C(=O)N[C@@H](CCCNC(=N)N)C(=O)N[C@@H](Cc1ccccc1)C(=O)N[C@@H](CC(C)C)C(=O)O [ChBac3.4] (H-RFRLPFRRPPIRIHPPPFYPPFRRFL-OH; N-terminus assumed) | 6.2 µM | 6.2 µM | 3.1 µM | 0.5 | 1 | 1.12 | 1 | 0.5 | 1/16 |  |  |  |  |  |  |  |  | 
2 | [O-][n+]1c(CO)c(CO)[n+]([O-])c2ccccc21 [Dioxydin] |  |  |  |  |  |  |  |  | 1/16 | 0.0312 mg/mL | 125 µg/mL | 0.0156 mg/mL | higher than 0.5 mg/mL | 500 µg/mL |  |  |  | 
3 | CC(O)(P(=O)(O)O)P(=O)(O)O [Etidronic acid] |  |  |  |  |  |  |  |  | 1/128 |  |  |  |  |  | 12.5 mg/mL | 25000 µg/mL | 50 mg/mL | 5000 µg/mL
4 | CC(C)C[C@H](NC(=O)[C@H](CCCNC(=N)N)NC(=O)CNC(=O)CNC(=O)[C@@H](N)CCCNC(=N)N)C(=O)N[C@H]1CSSC[C@@H](C(=O)N[C@H](C(=O)NCC(=O)N[C@@H](CCCNC(=N)N)C(N)=O)C(C)C)NC(=O)[C@H](C(C)C)NC(=O)[C@@H]2CSSC[C@H](NC(=O)[C@H](Cc3ccc(O)cc3)NC1=O)C(=O)N[C@@H](CCCNC(=N)N)C(=O)N[C@@H](CCCNC(=N)N)C(=O)N[C@@H](CCCNC(=N)N)C(=O)N[C@@H](Cc1ccccc1)C(=O)N2 [PG-1, protegrin 1] | 6.2 µM | 6.2 µM | 3.1 µM | 0.5 | 1.12 | 1.12 |  | 0.25 | 1/32 |  |  |  |  |  |  |  |  | 0.5 µM
5 | Cocamidopropyl betaine |  |  |  |  |  |  |  |  | 1/32 | 0.0781 mg/mL | >50,000 µg/mL | 0.1562 mg/mL |  | 1 µg/mL |  |  |  | 
